Consider two molecules from patent US20160128926A1, “COMPOSITIONS AND METHODS FOR TREATING NAILS, CLAWS, AND HOOFS” (TOPICAL SOLUTIONS, INC., priority 2013, published 2016).

For experiment [1], the target named is T1, hFP prostaglandin receptor (Homo sapiens, UniProt P43088).
T1 construct: expressed in transfected cells; host or cells: COS 7 cells transiently transfected (pCR 3.1 vector); the summary sentence instead says stably transfected CHO-KI cells
Put plainly: Competition binding assay (Reference Example 1), cited as the method for Example 1.

The subject of experiment [2] is Prostanoid F receptor family and the Prostanoid E1 receptor family. Put plainly: R-SAT functional assay (Reference Example 2), cited as the method for Example 2. As to conditions: 23 Days. Type of experiment: cell-based. The source says: Without intending to be limited by theory, there are two principal prostaglandin receptor families that control nail growth: the Prostanoid F receptor family and the Prostanoid E1 receptor family. Potential at these receptors in measured in two types of assays-binding assays and functional assays. The functional assay is described herein and the binding assay is above as Reference Example 1.
There are many functional assays available, for example, growth in Swiss 3T3 cells. Preferred is the R-SAT system. R-SAT is a cell-based assay system where genes are transferred to cultured cells. The functional activity of the gene products, or potential drug targets, are then evaluated through signal transduction pathways that lead to cellular growth. The growth signals are reported using marker gene technologies. Thus, effects of drugs on potential drug targets can be efficiently detected as changes in color or fluorescence. R-SAT enables the efficient screening of large compound libraries for identification of new chemistries at given targets, as well as detailed pharmacological testing of compounds at a wide range of targets, as described in MESSIER, T., DORMAN, C. M.; BRAUNEROSBORNE, H.; EUBANKS, D. & BRANN, M. R. (1995) Pharmacol. and Toxicol. 76 308-311, incorporated herein by reference.
was tested according to the method of Reference Example 2.

T1 sequence (P43088 whole entry): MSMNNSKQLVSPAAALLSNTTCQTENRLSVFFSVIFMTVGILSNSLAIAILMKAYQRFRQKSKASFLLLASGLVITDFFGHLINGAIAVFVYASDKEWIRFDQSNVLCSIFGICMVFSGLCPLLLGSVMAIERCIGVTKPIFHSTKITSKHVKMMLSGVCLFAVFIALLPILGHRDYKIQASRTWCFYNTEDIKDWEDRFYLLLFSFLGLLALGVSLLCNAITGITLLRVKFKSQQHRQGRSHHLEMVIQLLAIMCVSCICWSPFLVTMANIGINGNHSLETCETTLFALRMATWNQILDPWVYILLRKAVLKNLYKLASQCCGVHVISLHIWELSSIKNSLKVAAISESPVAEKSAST

On to `CC(C)OC(=O)CCCCCC[C@@H]1[C@@H](CCC(O)CSc2ccccc2)[C@H](O)C[C@@H]1O` (stereo partly shown) [Example 1], for which the “Average Grades” value worked out at 0.4 in experiment [1] (23 Days), 0.1 in experiment [1] (25 Days) and 0.7 in experiment [1] (26 Days).

On to `COC(=O)CCCCCC[C@@H]1[C@@H](CCC(O)CSc2ccccc2Br)[C@H](O)C[C@@H]1O` (stereo partly shown) [Example 2], for which the “Average Grades” value in experiment [2] was determined as 0.1.
